Data published in ChEMBL document CHEMBL5726081, “Therapeutic inhibitory compounds” (2017).

Biological target: Plasma kallikrein (Homo sapiens, UniProt P03952)
Experiment: In Vitro Enzyme Inhibition Assay: The ability of the compounds disclosed herein to inhibit human plasma kallikrein activity was quantified according to the procedures below.A 10 mM solution of the test compound was made in DMSO. […] A control tube containing only DMSO is included. […] 50 μL was removed from this mixture and placed into duplicate wells on a Microfluor 1Black U-bottom microtiter plate (Thermo Scientific). This plate was incubated for 5 minutes at 37° C. To each well, 50 μL of pre-warmed 2×PFR-AMC was added to start the enzymatic reaction. Cleavage of PFR-AMC was monitored in a Biotek Synergy H4 reader set at 37° C. Readings are taken every 43 seconds for 1 hour.

Sequence of Plasma kallikrein (P03952 20-390 limits assumed): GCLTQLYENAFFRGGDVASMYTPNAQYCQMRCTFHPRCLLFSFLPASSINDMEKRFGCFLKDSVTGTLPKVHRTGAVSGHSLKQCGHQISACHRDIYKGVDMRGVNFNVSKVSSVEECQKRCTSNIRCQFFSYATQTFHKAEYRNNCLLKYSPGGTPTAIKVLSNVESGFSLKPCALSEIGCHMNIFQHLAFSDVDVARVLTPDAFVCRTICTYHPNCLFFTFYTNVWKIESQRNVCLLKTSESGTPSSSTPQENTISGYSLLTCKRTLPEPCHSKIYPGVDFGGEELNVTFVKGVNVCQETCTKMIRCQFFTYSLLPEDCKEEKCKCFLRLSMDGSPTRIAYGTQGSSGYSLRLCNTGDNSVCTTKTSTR
Sequence of Plasma kallikrein (P03952 391-638 limits assumed): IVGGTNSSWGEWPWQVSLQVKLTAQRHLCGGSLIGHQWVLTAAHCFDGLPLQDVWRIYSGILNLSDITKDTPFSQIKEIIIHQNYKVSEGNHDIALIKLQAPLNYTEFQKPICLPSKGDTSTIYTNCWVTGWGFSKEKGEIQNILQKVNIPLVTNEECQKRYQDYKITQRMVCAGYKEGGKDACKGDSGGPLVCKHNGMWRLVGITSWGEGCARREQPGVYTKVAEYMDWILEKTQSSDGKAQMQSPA

Compound: N#Cc1ccc2cc(Cc3cc(C(=O)NCc4cc5c(Cl)c[nH]c5cc4F)ccn3)ccc2n1
- IC50: < 100 nM

Compound: Cc1nc(N)ccc1CNC(=O)c1ccnc(Cc2cc(C#N)c3ncc(Cl)cc3c2)c1
- IC50: < 100 nM
